Here are results for 64 compounds from US9200008B2 (ASKA PHARMACEUTICAL CO., LTD., priority 2010, dated 2015).

For this assay, the system named is Human prostate cancer cell lines (PC-3 cells). Put plainly: Measurement of cell death-inducing activity (Test Example 1). The format is cell-based. To be noted: PC-3, 48 h, 48 hours after addition, tested at 10, 1, 0.1, 0.025 and 0.00625 μmol/L, qualitative evaluation of 10 fields, read-out: Concentration showing the cell death-inducing activity (cell death-inducing rate not less than 40%). A digest of the protocol:
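Compound treatment lasted 48 h at 10 to 0.00625 μmol/L (five levels, DMSO as control) on PC-3 cells pre-cultured 48 h at 37 °C, 5% CO2 after seeding at 1×10^5 cells/well. A cell death-inducing rate of 40% or more counted as active.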
As for `CCc1nc(-c2ccc(C)cc2OC)sc1NC(=O)OCc1ccc2c(c1)nc1n2CCCC1` [Example 9-353], the minimal effective concentration is 0.1 µM. For `CCc1nc(-c2ccc(C)cc2C)sc1NC(=O)OCc1ccc2c(c1)nc1n2CCCC1` [Example 9-354] the value was 1 µM; for `CCc1nc(-c2ccc(F)cc2C)sc1NC(=O)OCc1ccc2c(c1)nc1n2CCCC1` [Example 9-355], 1 µM; for `CCc1nc(-c2ccc(Cl)cc2C)sc1NC(=O)OCc1ccc2c(c1)nc1n2CCCC1` [Example 9-356], 0.1 µM. As to `CCc1nc(-c2ccc(F)cc2OC)sc1NC(=O)OCc1ccc2c(c1)nc1n2CCOC1` [Example 9-357], the minimal effective concentration amounted to 0.025 µM. Regarding `CCc1nc(-c2ccc(C)cc2OC)sc1NC(=O)OCc1ccc2c(c1)nc1n2CCOC1` [Example 9-358], the minimal effective concentration worked out at 0.025 µM. Take `CCc1nc(-c2ccc(Cl)cc2C)sc1NC(=O)OCc1ccc2c(c1)ncn2C` [Example 9-359]: the minimal effective concentration is 0.025 µM.

With `CCc1nc(-c2ccc(F)cc2OC)sc1NC(=O)OCc1ccc2c(cnn2CC)c1` [Example 9-360], the minimal effective concentration is 0.025 µM. Regarding `CCc1nc(-c2ccc(F)cc2C)sc1NC(=O)OCc1ccc2c(cnn2CC)c1` [Example 9-361], the minimal effective concentration was determined as 0.1 µM. Regarding `CCc1nc(-c2ccc(Cl)cc2C)sc1NC(=O)OCc1ccc2c(cnn2CC)c1` [Example 9-362], the minimal effective concentration was 0.025 µM.

Take `CCc1nc(-c2ccc(F)cc2C)sc1NC(=O)OCc1ccc2nn(C)cc2c1` [Example 9-363]: the minimal effective concentration worked out at 1 µM.

Take `CCc1nc(-c2ccc(Cl)cc2OC)sc1NC(=O)OCc1ccc2nn(C)cc2c1` [Example 9-364]: the minimal effective concentration was 0.025 µM. For the compound `CCc1nc(-c2ccc(C)cc2OC)sc1NC(=O)OCc1ccc2nn(C)cc2c1` [Example 9-365], the minimal effective concentration was determined as 0.025 µM. On to `CCc1nc(-c2ccc(C)cc2C)sc1NC(=O)OCc1ccc2nn(C)cc2c1` [Example 9-366], for which the minimal effective concentration was 0.1 µM.

Regarding `CCc1nc(-c2ccccc2OC)sc1NC(=O)OCc1ccc2nn(CC)cc2c1` [Example 9-367], the minimal effective concentration came out at 1 µM. Next, `CCc1nc(-c2ccc(C)cc2OC)sc1NC(=O)OCc1ccc2nn(CC)cc2c1` [Example 9-368]: 0.1 µM. Turning to `CCc1nc(-c2ccc(F)cc2C)sc1NC(=O)OCc1ccc2nn(CC)cc2c1` [Example 9-369], the minimal effective concentration was found to be 1 µM.

Regarding `CCc1nc(-c2ccc(Cl)cc2C)sc1NC(=O)OCc1ccc2nn(CC)cc2c1` [Example 9-370], the minimal effective concentration came out at 0.1 µM. For `CCc1nc(-c2ccc(C)cc2C)sc1NC(=O)OCc1ccc2nn(CC)cc2c1` [Example 9-371] the value was 1 µM. Take `CCc1nc(-c2ccc(C)cc2OC)sc1NC(=O)OCc1ccc2c(c1)nnn2C` [Example 9-372]: the minimal effective concentration is 0.00625 µM. In the case of `CCc1nc(-c2ccc(Cl)cc2OC)sc1NC(=O)OCc1ccc2c(c1)nc(C)n2C` [Example 9-373], the minimal effective concentration is 0.025 µM. As to `CCc1nc(-c2ccc(C)cc2OC)sc1NC(=O)OCc1ccc2c(c1)nc(C)n2C` [Example 9-374], the minimal effective concentration came to 0.1 µM.

Consider `CCc1nc(-c2ccc(C)cc2C)sc1NC(=O)OCc1ccc2c(c1)nc(C)n2C` [Example 9-375], for which the minimal effective concentration is 0.1 µM. Regarding `CCc1nc(-c2ccc(Cl)cc2C)sc1NC(=O)OCc1ccc2c(c1)nc(C)n2C` [Example 9-376], the minimal effective concentration came out at 0.1 µM. Next, `CCc1nc(-c2ccc(Cl)cc2C)sc1NC(=O)OCc1ccc2c(c1)nc1n2CCOC1` [Example 9-377]: 0.025 µM. Take `COc1cc(Cl)ccc1-c1cc(NC(=O)OCc2ccc3c(c2)ncn3C)n(C)c1` [Example 10-2, [4-(4-Chloro-2-methoxyphenyl)-1-methyl-1H-pyrrol-2-yl]carbamic acid 1-methyl-1H-benzimidazol-5-ylmethyl ester]: the minimal effective concentration is 1 µM. Next, `Cc1ccccc1-c1nc(C)c(COC(=O)Nc2ccc3c(c2)ncn3C)s1` [Example 13-1, (1-Methyl-1H-benzimidazol-5-yl)carbamic acid 4-methyl-2-(2-methylphenyl)thiazol-5-ylmethyl ester]: 0.1 µM; `Cc1cc(Cl)ccc1-c1nc(C)c(COC(=O)Nc2ccc3c(c2)nnn3C)s1` [Example 13-3]: 0.1 µM; `COc1cc(Cl)ccc1-c1nc(C)c(COC(=O)Nc2ccc3c(c2)ncn3C)s1` [Example 13-5]: 0.1 µM. With `Cc1ccc(-c2nc(C)c(COC(=O)Nc3ccc4c(c3)ncn4C)s2)c(C)c1` [Example 13-8], the minimal effective concentration is 0.025 µM. Turning to `Cc1cc(F)ccc1-c1nc(C)c(COC(=O)Nc2ccc3c(c2)ncn3C)s1` [Example 13-9], the minimal effective concentration was found to be 0.025 µM. With `Cc1cc(Cl)ccc1-c1nc(C)c(COC(=O)Nc2ccc3c(c2)ncn3C)s1` [Example 13-10], the minimal effective concentration turned out to be 0.00625 µM. For the compound `Cc1nc(-c2ccc(F)cc2Cl)sc1COC(=O)Nc1ccc2c(c1)ncn2C` [Example 13-11], the minimal effective concentration stood at 0.025 µM. As for `CCn1cnc2cc(NC(=O)OCc3sc(-c4ccccc4C)nc3C)ccc21` [Example 13-12], the minimal effective concentration came to 0.1 µM. Consider `CCn1cnc2cc(NC(=O)OCc3sc(-c4ccc(Cl)cc4OC)nc3C)ccc21` [Example 13-13], for which the minimal effective concentration turned out to be 0.1 µM. On to `CCn1cnc2cc(NC(=O)OCc3sc(-c4ccc(C)cc4C)nc3C)ccc21` [Example 13-15], for which the minimal effective concentration turned out to be 0.025 µM. Take `CCn1cnc2cc(NC(=O)OCc3sc(-c4ccc(F)cc4C)nc3C)ccc21` [Example 13-16]: the minimal effective concentration worked out at 0.025 µM. On to `CCn1cnc2cc(NC(=O)OCc3sc(-c4ccc(Cl)cc4C)nc3C)ccc21` [Example 13-17], for which the minimal effective concentration was 0.025 µM. On to `CCn1cnc2cc(NC(=O)OCc3sc(-c4ccc(F)cc4Cl)nc3C)ccc21` [Example 13-18], for which the minimal effective concentration is 0.025 µM. For `CCCn1cnc2cc(NC(=O)OCc3sc(-c4ccc(C)cc4C)nc3C)ccc21` [Example 13-19], the minimal effective concentration came to 1 µM. As to `CCn1c(C)nc2cc(NC(=O)OCc3sc(-c4ccc(C)cc4C)nc3C)ccc21` [Example 13-20], the minimal effective concentration is 1 µM. For `CCn1c(C)nc2cc(NC(=O)OCc3sc(-c4ccc(Cl)cc4C)nc3C)ccc21` [Example 13-21] the value was 0.1 µM. Next, `COc1ccccc1-c1nc(C)c(COC(=O)Nc2ccc3c(c2)nc2n3CCOC2)s1` [Example 13-22]: 10 µM; `COc1cc(Cl)ccc1-c1nc(C)c(COC(=O)Nc2ccc3c(c2)nc2n3CCOC2)s1` [Example 13-23]: 1 µM.

As to `Cc1ccc(-c2nc(C)c(COC(=O)Nc3ccc4c(c3)nc3n4CCOC3)s2)c(C)c1` [Example 13-24], the minimal effective concentration is 0.025 µM. `Cc1cc(F)ccc1-c1nc(C)c(COC(=O)Nc2ccc3c(c2)nc2n3CCOC2)s1` [Example 13-25]: the minimal effective concentration was 0.025 µM. `Cc1cc(Cl)ccc1-c1nc(C)c(COC(=O)Nc2ccc3c(c2)nc2n3CCOC2)s1` [Example 13-26]: the minimal effective concentration worked out at 0.00625 µM.

On to `COc1cc(Cl)ccc1-c1nc(C)c(COC(=O)Nc2ccc3c(c2)nc2n3CCC2)s1` [Example 13-27], for which the minimal effective concentration is 1 µM. For the compound `Cc1ccc(-c2nc(C)c(COC(=O)Nc3ccc4c(c3)nc3n4CCC3)s2)c(C)c1` [Example 13-28], the minimal effective concentration worked out at 0.025 µM. For the compound `Cc1nc(-c2ccc(F)cc2Cl)sc1COC(=O)Nc1ccc2c(c1)nc1n2CCC1` [Example 13-30], the minimal effective concentration came to 0.1 µM. Regarding `COc1cc(Cl)ccc1-c1nc(C)c(COC(=O)Nc2ccc3c(c2)nc2n3CCCC2)s1` [Example 13-31], the minimal effective concentration was 1 µM. As to `Cc1ccc(-c2nc(C)c(COC(=O)Nc3ccc4c(c3)nc3n4CCCC3)s2)c(C)c1` [Example 13-33], the minimal effective concentration stood at 0.1 µM. Next, `Cc1cc(F)ccc1-c1nc(C)c(COC(=O)Nc2ccc3c(c2)nc2n3CCCC2)s1` [Example 13-34]: 0.025 µM; `Cc1cc(Cl)ccc1-c1nc(C)c(COC(=O)Nc2ccc3c(c2)nc2n3CCCC2)s1` [Example 13-35]: 0.025 µM; `COc1cc(Cl)ccc1-c1nc(C)c(COC(=O)Nc2ccc3c(c2)nc2n3C(C)CCC2)s1` (stereo not shown) [Example 13-36]: 10 µM. `Cc1cc(Cl)ccc1-c1nc(C)c(COC(=O)Nc2ccc3c(c2)nc2n3CCCCC2)s1` [Example 13-39]: the minimal effective concentration was determined as 1 µM. Regarding `COc1cc(Cl)ccc1-c1nc(C)c(COC(=O)Nc2ccc3c(cnn3C)c2)s1` [Example 13-41], the minimal effective concentration stood at 1 µM. Next, `CCn1ncc2cc(NC(=O)OCc3sc(-c4ccc(F)cc4C)nc3C)ccc21` [Example 13-44]: 0.1 µM; `CCn1ncc2cc(NC(=O)OCc3sc(-c4ccc(C)cc4C)nc3C)ccc21` [Example 13-45]: 0.1 µM; `COc1cc(Cl)ccc1-c1nc(C)c(COC(=O)Nc2ccc3nn(C)cc3c2)s1` [Example 13-46]: 10 µM. As to `Cc1ccc(-c2nc(C)c(COC(=O)Nc3ccc4nn(C)cc4c3)s2)c(C)c1` [Example 13-48], the minimal effective concentration was determined as 0.1 µM. Next, `Cc1cc(F)ccc1-c1nc(C)c(COC(=O)Nc2ccc3nn(C)cc3c2)s1` [Example 13-49]: 0.1 µM; `Cc1cc(Cl)ccc1-c1nc(C)c(COC(=O)Nc2ccc3nn(C)cc3c2)s1` [Example 13-50]: 0.025 µM.

For `CCn1cc2cc(NC(=O)OCc3sc(-c4ccc(F)cc4C)nc3C)ccc2n1` [Example 13-54], the minimal effective concentration is 0.1 µM.
